Experimental data reported in paper PMC3749181, “Rapid Identification of Antifungal Compounds against Exserohilum rostratum Using High Throughput Drug Repurposing Screens” (PLoS ONE, 2013).

What follows are compounds tested on SH-SY5Y cells (assay: SH-SY5Y cytotoxicity counter-screen (ATP content assay)). Settings: Table 2, SH-SY5Y; 46 µM Amphotericin B = 100%; inact. = no significant activity at 46 µM.
Assay type: cell-based, Human
Procedure: Human neuroblastoma SH-SY5Y cell line (Catalog No. CRL-2266) was purchased from ATCC (Manassas, VA). SH-SY5Y cell line was cultured in 175-cm^2 tissue culture flasks (Costar, Cambridge, MA) with 30 ml of growth medium at 37°C in a 5% CO2 humidified atmosphere. Growth medium was made with Dulbecco's Modified Eagle Medium: Nutrient Mixture F-12 with 10% fetal bovine serum (FBS). Growth medium was replaced every other day and cells were passed at 75% confluence.
(§1) The ATPLite assay kit, consisting of luciferase/luciferin and detergent, was used to quantitate cellular ATP levels as a marker for cell viability (Table 1). For assay development, hyphal fragments or conidia in PBS were plated in a seeding density of 3,750, 7,500 and 15,000 cellular particles/well with a final volume of 5 µl/well using the Multidrop-Combi dispenser in white 1536-well plates. Conidia or hyphae fragments were incubated for 24 h at 37°C in a 5% CO2 humidified atmosphere. ATPLite detection reagents were added at 4 µl/well. The assay plates were incubated at room temperature for 15 minutes before reading luminescence intensity on a ViewLux plate reader (Perkin Elmer, Waltham, MA). Conidia suspended in RPMI medium were inoculated at concentrations of 62.5, 125 and 250 conidia/well with a final volume of 5 µl/well in white 1536-well plates. The conidia assay was developed and optimized in the same way as the hyphal assay.
Two small known compound libraries including the LOPAC (1280 compounds) and approved drugs (4096 compounds) were screened in parallel using the above optimized assays for hyphae and conidia in 1536-well plates (Fig. 4). […] A mammalian SH-SY5Y cell line was used in parallel as a counter-screen with the same ATP content assay kit to assess the specificity of these compounds for E. rostratum.

How did the “SH-SY5Y % Max. Resp.” value turn out when `Clc1ccc(C(Cn2ccnc2)OCc2ccsc2Cl)c(Cl)c1` (centres unmarked) [Tioconazole] was run?
The value was “inact”.

How did the “SH-SY5Y % Max. Resp.” value turn out when `C[CH2][Hg][S]c1ccccc1C(=O)[O-].[Na+]` [Thimerosal] was run?
Its value is 96%.

How did the “SH-SY5Y % Max. Resp.” value turn out when `Oc1c(I)cc(Cl)c2cccnc12` [Clioquinol] was run?
Its value is 60%.

How did the “SH-SY5Y % Max. Resp.” value turn out when `CC(=O)N1CCN(c2ccc(OCC3COC(Cn4ccnc4)(c4ccc(Cl)cc4Cl)O3)cc2)CC1` (centres unmarked) [Ketoconazole] was run?
The value was “inact”.

Same assay, conditions: Table 2, SH-SY5Y; inact. = no significant activity at 46 µM

`Clc1ccc(C(Cn2ccnc2)OCc2ccsc2Cl)c(Cl)c1` (centres unmarked) [Tioconazole] was tested. Which “SH-SY5Y % Max. Resp.” value did it give?
The value was “inact”.

How did the “SH-SY5Y % Max. Resp.” value turn out when `C[CH2][Hg][S]c1ccccc1C(=O)[O-].[Na+]` [Thimerosal] was run?
The value was 2.63%.

For `Oc1c(I)cc(Cl)c2cccnc12` [Clioquinol], which “SH-SY5Y % Max. Resp.” value is on record?
The value was 37.2%.

`CC(=O)N1CCN(c2ccc(OCC3COC(Cn4ccnc4)(c4ccc(Cl)cc4Cl)O3)cc2)CC1` (centres unmarked) [Ketoconazole] was tested. Which “SH-SY5Y % Max. Resp.” value did it give?
Its value is “inact”.

Same assay, conditions: Table S1; 46 µM Amphotericin B = 100%; Inact. = no significant activity at 46 µM

`CN(C/C=C/C#CC(C)(C)C)Cc1cccc2ccccc12` [Terbinafine] was tested. Which “SH-SY5Y % M. Res.” value did it give?
The value was “Inact”.

How did the “SH-SY5Y % M. Res.” value turn out when `Clc1ccc(C(Cn2ccnc2)OCc2ccsc2Cl)c(Cl)c1` (centres unmarked) [Tioconazole] was run?
Its value is “Inact”.

Which “SH-SY5Y % M. Res.” value does the source give for `CC(=O)N1CCN(c2ccc(OCC3COC(Cn4ccnc4)(c4ccc(Cl)cc4Cl)O3)cc2)CC1` (centres unmarked) [Ketoconazole] here?
Its value is “Inact”.

Same assay, conditions: Table S1; Inact. = no significant activity at the highest compound concentration (46 µM)

How did the “SH-SY5Y IC50” value turn out when `CN(C/C=C/C#CC(C)(C)C)Cc1cccc2ccccc12` [Terbinafine] was run?
The value was “Inact”.

With `Clc1ccc(C(Cn2ccnc2)OCc2ccsc2Cl)c(Cl)c1` (centres unmarked) [Tioconazole] as the compound, how does the “SH-SY5Y IC50” value read?
Its value is “Inact”.

For `CC(=O)N1CCN(c2ccc(OCC3COC(Cn4ccnc4)(c4ccc(Cl)cc4Cl)O3)cc2)CC1` (centres unmarked) [Ketoconazole], which “SH-SY5Y IC50” value is on record?
The value was “Inact”.

The compounds below were run on E. rostratum conidia (assay: conidia growth inhibition ATP content assay (RPMI, 1536-well)). Settings: Exserohilum rostratum, 24 h, Table 2; 24 h; inact. = no significant activity at the highest compound concentration (46 µM); read-out: Conidia IC50.
Assay type: cell-based, Exserohilum rostratum
Procedure: (§2) Conidia and hyphae of E. rostratum were obtained as described by Richard et al., with the following modifications. Briefly, conidia were harvested from Potato Dextrose Agar (PDA) cultured media with 0.05% Tween 80, and the conidial suspension was filtered using a Cell Strainer (100 µm, BD Falcon REF 352340). After centrifugation at 700g for 10 min, the suspension was decanted and conidia were resuspended at 1×10^5 per ml in RPMI and counted in a hemocytometer. Hyphae were harvested from yeast extract peptone dextrose (YPD) culture media with 0.05% Tween 80. Hyphal fragments were sized by vortexing 15 sec twice with 0.4 mm glassbeads, and the hyphae suspension was filtered by cheese cloth twice. […] To normalize concentrations of hyphal fragments for batch to batch consistency, carbohydrate analysis was performed by a phenol-sulfuric acid method as previously described. The final stock concentration of hyphae was adjusted to 1.0 (OD490) per 100 µl.
as §1
(§3) The LOPAC library (Sigma-Aldrich) has been extensively used for HTS assay validations, [18]. The NIH Chemical Genomics Center Pharmaceutical (NPC) collection was constructed in-house through a combined effort of compound purchasing and custom synthesis and recently expanded to 4096 compounds. […] 2.5 µl/well PBS was dispensed into 1536-well plates using a Multidrop-Combi dispenser. Compound in DMSO solution was transferred in a volume of 23 nl/well using a NX-TR pintool station (WAKO Scientific Solutions, San Diego, CA). This additional PBS step for compound addition was designed to prevent the potential fungal contamination of compound libraries. The hyphal fragments in PBS were then added at 2.5 µl/well for a final seeding density of 15,000 hyphal fragments/well using the Multidrop-Combi dispenser. The final compound concentration was 46 µM in the primary screen. The assay plates were incubated for 24 h at 30°C before the detection of cellular viability with the ATP content assay. Screen of conidia was performed in a similar way except that PBS was replaced with RPMI medium and conidia were plated for a final seeding density of 250 conidia/well.
(§4) The primary screen data and curve fitting were analyzed using software developed internally at the NIH Chemical Genomics Center (NCGC). Total signals for cellular viability (100% cellular viability) were calculated from the wells with DMSO solvent and the complete cell killing (0% cellular viability) was calculated from 46 µM amphotericin B treated wells. […] All values were expressed as the mean +/− SD (n≥3).

For `Clc1ccc(C(Cn2ccnc2)OCc2ccsc2Cl)c(Cl)c1` (centres unmarked) [Tioconazole], which IC50 is on record?
The IC50 was 8.55 µM.

How did the IC50 turn out when `Oc1c(I)cc(Cl)c2cccnc12` [Clioquinol] was run?
The IC50 was 0.975 µM.

Which IC50 does the source give for `CC(=O)N1CCN(c2ccc(OCC3COC(Cn4ccnc4)(c4ccc(Cl)cc4Cl)O3)cc2)CC1` (centres unmarked) [Ketoconazole] here?
The IC50 was 3.47 µM.

Same assay, conditions: Exserohilum rostratum; Table 2; 46 µM Amphotericin B = 100%; inact. = no significant activity at 46 µM; read-out: Conidia % Max. Resp.

With `Clc1ccc(C(Cn2ccnc2)OCc2ccsc2Cl)c(Cl)c1` (centres unmarked) [Tioconazole] as the compound, how does the Emax read?
The Emax was 101%.

With `Oc1c(I)cc(Cl)c2cccnc12` [Clioquinol] as the compound, how does the Emax read?
Its Emax is 103%.

For `CC(=O)N1CCN(c2ccc(OCC3COC(Cn4ccnc4)(c4ccc(Cl)cc4Cl)O3)cc2)CC1` (centres unmarked) [Ketoconazole], which Emax is on record?
The Emax was 101%.

Same assay, conditions: Exserohilum rostratum; Table S1; 46 µM Amphotericin B = 100%; Inact. = no significant activity at 46 µM; read-out: Conidia % M. Res.

With `Clc1ccc(C(Cn2ccnc2)OCc2ccsc2Cl)c(Cl)c1` (centres unmarked) [Tioconazole] as the compound, how does the Emax read?
Its Emax is 101%.

Which Emax does the source give for `CC(=O)N1CCN(c2ccc(OCC3COC(Cn4ccnc4)(c4ccc(Cl)cc4Cl)O3)cc2)CC1` (centres unmarked) [Ketoconazole] here?
The Emax was 101%.

Same assay, conditions: Table 2; 46 µM Amphotericin B = 100%; inact. = no significant activity at 46 µM

For `C[CH2][Hg][S]c1ccccc1C(=O)[O-].[Na+]` [Thimerosal], which “Conidia % Max. Resp.” value is on record?
Its value is 102%.

Same assay, conditions: Table 2; 24 h; inact. = no significant activity at the highest compound concentration (46 µM); read-out: Conidia IC50

How did the IC50 turn out when `C[CH2][Hg][S]c1ccccc1C(=O)[O-].[Na+]` [Thimerosal] was run?
The IC50 was 0.139 µM.

Same assay, conditions: Table S1; 46 µM Amphotericin B = 100%; Inact. = no significant activity at 46 µM

`CN(C/C=C/C#CC(C)(C)C)Cc1cccc2ccccc12` [Terbinafine] was tested. Which “Conidia % M. Res.” value did it give?
Its value is “Inact”.

Same assay, conditions: Table S1; Inact. = no significant activity at the highest compound concentration (46 µM)

`CN(C/C=C/C#CC(C)(C)C)Cc1cccc2ccccc12` [Terbinafine] was tested. Which “Conidia IC50” value did it give?
The value was “Inact”.

The compounds below were run on E. rostratum hyphal fragments (assay: hyphal fragment fungicidal ATP content assay (PBS, 1536-well)). Settings: Exserohilum rostratum; Table 2; 46 µM Amphotericin B = 100%; inact. = no significant activity in the primary screen; read-out: Hyphae % Max. Resp.
Assay type: cell-based, Exserohilum rostratum
Procedure: as §2, §1, §3, §4

For `Clc1ccc(C(Cn2ccnc2)OCc2ccsc2Cl)c(Cl)c1` (centres unmarked) [Tioconazole], which Emax is on record?
Its Emax is 100%.

How did the Emax turn out when `CC(=O)N1CCN(c2ccc(OCC3COC(Cn4ccnc4)(c4ccc(Cl)cc4Cl)O3)cc2)CC1` (centres unmarked) [Ketoconazole] was run?
Its Emax is 74%.

Same assay, conditions: Exserohilum rostratum; Table 2; 24 h; inact. = no significant activity in the primary screen; read-out: Hyphae IC50

With `Clc1ccc(C(Cn2ccnc2)OCc2ccsc2Cl)c(Cl)c1` (centres unmarked) [Tioconazole] as the compound, how does the IC50 read?
The IC50 was 5.97 µM.

With `CC(=O)N1CCN(c2ccc(OCC3COC(Cn4ccnc4)(c4ccc(Cl)cc4Cl)O3)cc2)CC1` (centres unmarked) [Ketoconazole] as the compound, how does the IC50 read?
The IC50 was 2.38 µM.

Same assay, conditions: Exserohilum rostratum; Table S1; 46 µM Amphotericin B = 100%; Inact. = no significant activity in the primary screen; read-out: Hyphae % M. Res.

With `CN(C/C=C/C#CC(C)(C)C)Cc1cccc2ccccc12` [Terbinafine] as the compound, how does the Emax read?
Its Emax is 64%.

Which Emax does the source give for `Clc1ccc(C(Cn2ccnc2)OCc2ccsc2Cl)c(Cl)c1` (centres unmarked) [Tioconazole] here?
The Emax was 100%.

For `CC(=O)N1CCN(c2ccc(OCC3COC(Cn4ccnc4)(c4ccc(Cl)cc4Cl)O3)cc2)CC1` (centres unmarked) [Ketoconazole], which Emax is on record?
Its Emax is 74%.

Same assay, conditions: Exserohilum rostratum; Table S1; Inact. = no significant activity in the primary screen; read-out: Hyphae IC50

With `CN(C/C=C/C#CC(C)(C)C)Cc1cccc2ccccc12` [Terbinafine] as the compound, how does the IC50 read?
The IC50 was 34 µM.

Same assay, conditions: Table 2; 46 µM Amphotericin B = 100%; inact. = no significant activity in the primary screen

With `C[CH2][Hg][S]c1ccccc1C(=O)[O-].[Na+]` [Thimerosal] as the compound, how does the “Hyphae % Max. Resp.” value read?
Its value is “inact”.

With `Oc1c(I)cc(Cl)c2cccnc12` [Clioquinol] as the compound, how does the “Hyphae % Max. Resp.” value read?
The value was “inact”.

Same assay, conditions: Table 2; 24 h; inact. = no significant activity in the primary screen

With `C[CH2][Hg][S]c1ccccc1C(=O)[O-].[Na+]` [Thimerosal] as the compound, how does the “Hyphae IC50” value read?
The value was “inact”.

For `Oc1c(I)cc(Cl)c2cccnc12` [Clioquinol], which “Hyphae IC50” value is on record?
The value was “inact”.
